Tested on: rat myocardial I/R model
Assay: RBC velocity in the venules of heart coronary vessels after myocardial I/R
Format: in vivo
Conditions: for inhibitory effect on the decreased RBC velocity in the venules caused by I/R: from 30 min after reperfusion
Method: The rats were anesthetized by intramuscularly injecting 20 wt % urethane (1.25 g/kg) and fixed in the supine position. Neck skin was incised and anterior cervical muscles were separated to expose the trachea. Tracheal intubation was performed. Another end of the intubation was attached to a Small Animal Ventilator (ALC-V8, Shanghai Aoteshai Biology Science and Technology Limited Company, Shanghai, China) so as to carry out pressure breathing under the following conditions: a respiratory ratio of 1:1, a respiratory frequency of 75 times/min and a tidal volume of 12 mL/kg. The rectal temperature, measured with YSI REF 401 (Yellow Spring, Ohio, USA), was maintained at 37 37.5° C. by using a thermal blanket. The chest was sterilized and opened at the intercostal space between 2nd 4th ribs near the left and right sternal border to expose the heart. The 3⁄8 curved needle threaded with 3-0 suture was used to pass through the site at 1 2 mm below the juncture of the pulmonary artery cone and the left atrial appendage. The suture was ligated. A polyethylene tubule was placed between the silk suture and myocardial tissue, the silk suture was […] to cause ischemia. Ligature was released 30 min later to establish an I/R model. Danshensu+I/R group (DLA+I/R group): a Danshensu aqueous solution (in normal saline, 1.25 mg/ml) was administrated at a dosage of 5 mg/kg BW/h by intravenous drip 20 min before the experiment and continued until the end of the entire experiment. Notoginsenoside R1+I/R group (R1+I/R group): a Notoginsenoside R1 aqueous solution (in normal saline, 1.25 mg/ml) was administrated at a dosage of 5 mg/kg BW/h by intravenous drip 20 min before the experiment and continued until the end of the entire experiment. […] Heart coronary vessel microcirculation had been recorded by a CD video recorder ([…], US). […] The diameter of the venules and RBC velocity under a same visual field were recorded before ischemia, 30 min after ischemia, 30 min after reperfusion and 60 min after reperfusion. Recordings were replayed at 25 frames·s^-1, diameters of the arterioles and the venules as well as RBC velocities were measured with Image-Pro Plus 5.0 software. RBC velocities in the rat's heart arterioles and venules were expressed as “mm/s”, and the diameters of the rat's heart arterioles and venules were expressed as “μm”.

[1] = 5 mg/kg BW/h intravenous drip, FIG. 2

CC(C)=CCC[C@](C)(O[C@@H]1O[C@H](CO)[C@@H](O)[C@H](O)[C@H]1O)[C@H]1CC[C@]2(C)[C@@H]1[C@H](O)C[C@@H]1[C@@]3(C)CC[C@H](O)C(C)(C)[C@@H]3[C@@H](O[C@@H]3O[C@H](CO)[C@@H](O)[C@H](O)[C@H]3O[C@@H]3OC[C@@H](O)[C@H](O)[C@H]3O)C[C@]12C [Notoginsenoside R1]
inhibitory effect on the decreased RBC velocity in the venules caused by I/R [1]: does not display a significantly inhibitory effect

O=C(O)C(O)Cc1ccc(O)c(O)c1 (stereo not shown) [Danshensu, (3,4-dihydroxyphenyl)lactic acid]
inhibitory effect on the decreased RBC velocity in the venules caused by I/R [1]: significantly inhibitory effect
course of the inhibitory effect on decreased RBC velocity (5 mg/kg BW/h intravenous drip, until 60 min after reperfusion, FIG. 2): does not further improved
amelioration of RBC velocity in the venules of the heart coronary vessels caused by I/R (summary) (rats, summary statement of the description): transiently ameliorate
